# Test system: HepaRG 3D microtissues
# Settings: 10-day old HepaRG 3D microtissues, 1.2 mM CPA
# Description: FIG. 2B is a chart showing the change in HepaRG spheroid volume as an indicator of cytotoxicity induced by cyclophosphamide (CPA) with or without 1-aminobenzotriazol (ABT). The inventors analyzed the data with two-way ANOVA with Tukey's LSD means. P=0.05. […] FIG. 2C is a picture showing hematoxylin and eosin (H&E) stained toroid-shaped HepaRG microtissues. Scale bars=100 μm.
compound,measurement,value
"O=P1(N(CCCl)CCCl)NCCCO1 (stereo not shown) [CPA, cyclophosphamide]",cytotoxicity: cell death and spheroid volume,caused cell death and a significant reduction in spheroid volume
